# Data taken from US20050282755A1, “Compositions having antimicrobial activity and uses thereof” (priority 2004, published 2005).
# Starred links: 1 amine or outer side, 2 acyl side, 3 side chain; linkers in the order of their positions; H or OH if unused. Non-standard residues stand in square brackets, D forms with d. Residues, ends and D or L forms follow the SMILES beside them. *: point of attachment. Ethylenediamine = C(CN[*:2])N[*:1]; Palmitoyl = CCCCCCCCCCCCCCCC(=O)*; Lauroyl = CCCCCCCCCCCC(=O)*; Decanoyl = CCCCCCCCCC(=O)*
# How the values were obtained:
# Format in all cases: cell-based
# [1] = test system: Staphylococcus aureus ATCC 29213; assay: MIC, NCCLS M7-A6 broth microdilution, cation-adjusted Mueller Hinton broth (Table 9, no superscript); conditions: ATCC 29213
# Method in brief: (§1)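 MIC determined by microdilution in cation-adjusted Mueller Hinton broth after overnight growth at 37° C, defined as the lowest peptide level lacking turbidity.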
# [2] = test system: Escherichia coli ATCC 25922; assay: MIC, NCCLS M7-A6 broth microdilution (Table 9, no superscript); conditions: ATCC 25922
# Method in brief: as §1
# [3] = test system: Pseudomonas aeruginosa ATCC 27853; assay: as above; conditions: ATCC 27853
# Method in brief: as §1
# Salmonella dublin (Lane) = assay: as above
# Method in brief: as §1
# [4] = test system: Staphylococcus epidermidis ATCC 12228; assay: as above; conditions: ATCC 12228
# Method in brief: as §1
# [5] = test system: Propionibacterium acnes ATCC 6919; assay: MIC, agar dilution method NCCLS M11-A6, Brucella agar, anaerobic (Table 9, superscript c); conditions: ATCC 6919
# Method in brief: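 MIC taken as the lowest peptide level giving no colonies on the plate. Plates were inoculated to 1.5×10^8 CFU/milliliter, then kept anaerobically at 37° C. for 48-96 hours; method follows NCCLS M11-A6.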
# [6] = test system: Candida albicans ATCC 18804; assay: MIC in yeasts, NCCLS M27-A2 broth microdilution, RPMI 1640 (Table 9, letter e); conditions: ATCC 18804
# Method in brief: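 Plates incubated 24 to 48 hours at 37° C, with yeast seeded at 0.5×10^3–2.5×10^3 CFU/milliliter final in RPMI 1640 (glutamine, phenol red indicator). MIC was read as the lowest peptide concentration showing no visible growth.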
SMILES,MIC S. aureus [1] [µg/mL],MIC E. coli [2] [µg/mL],MIC P. aeruginosa [3] [µg/mL],MIC S. dublin (Salmonella dublin (Lane)) [µg/mL],MIC S. epidermidis [4] [µg/mL],MIC P. acnes [5] [c ug/mL],MIC C. albicans [6] [e ug/mL]
"CCCCCCCCCCCC(=O)NCCNC(=O)[C@H](CCCNC(=N)N)NC(=O)[C@H](CCSC)NC(=O)[C@H](Cc1ccccc1)NC(=O)[C@H](CC(N)=O)NC(=O)[C@H](CCCNC(=N)N)NC(=O)[C@H](C)NC(=O)[C@@H](NC(=O)[C@H](CC(=O)O)NC(=O)[C@H](CCCNC(=N)N)NC(=O)[C@H](Cc1c[nH]c2ccccc12)NC(=O)[C@H](CCCNC(=N)N)NC(=O)[C@H](CO)NC(=O)[C@@H](N)CCCNC(=N)N)C(C)C [Peptide 176, H2N-RSRWRDVARNFMR-Ethylamidolauryl] (H-RSRWRDVARNFMR-{Ethylenediamine-Lauroyl}; C-terminus assumed)",8,8,32,16,1,64,4
"CCCCCCCCCCCCCCCC(=O)N[C@H](CCCNC(=N)N)C(=O)N[C@H](CO)C(=O)N[C@H](CCCNC(=N)N)C(=O)N[C@H](Cc1c[nH]c2ccccc12)C(=O)N[C@H](CCCNC(=N)N)C(=O)N[C@H](CC(=O)O)C(=O)N[C@@H](C(=O)N[C@H](C)C(=O)N[C@H](CCCNC(=N)N)C(=O)N[C@H](CC(N)=O)C(=O)N[C@H](Cc1ccccc1)C(=O)N[C@H](CCSC)C(=O)N[C@H](CCCNC(=N)N)C(N)=O)C(C)C [Peptide 209, Palmitoyl-rsrwrdvarnfmr-NH2] (Palmitoyl-[dR][dS][dR][dW][dR][dD][dV][dA][dR][dN][dF][dM][dR]-NH2)",16,>64,>64,32,8,32,8
"CCCCCCCCCCCC(=O)NCCCC[C@H](NC(=O)[C@H](CCCNC(=N)N)NC(=O)[C@H](CCSC)NC(=O)[C@H](Cc1ccccc1)NC(=O)[C@H](CC(N)=O)NC(=O)[C@H](CCCNC(=N)N)NC(=O)[C@H](C)NC(=O)[C@@H](NC(=O)[C@H](CC(=O)O)NC(=O)[C@H](CCCNC(=N)N)NC(=O)[C@H](Cc1c[nH]c2ccccc12)NC(=O)[C@H](CCCNC(=N)N)NC(=O)[C@H](CO)NC(=O)[C@@H](N)CCCNC(=N)N)C(C)C)C(N)=O [Peptide 186, H2N-RSRWRDVARNFMRK(Lauryl)-NH2] (H-RSRWRDVARNFMRK(Lauroyl)-NH2)",4,4,4,16,1,16,16
"CCCCCCCCCC(=O)NCCNC(=O)[C@H](CCCNC(=N)N)NC(=O)[C@H](CCSC)NC(=O)[C@H](Cc1ccccc1)NC(=O)[C@H](CC(N)=O)NC(=O)[C@H](CCCNC(=N)N)NC(=O)[C@H](C)NC(=O)[C@@H](NC(=O)[C@H](CC(=O)O)NC(=O)[C@H](CCCNC(=N)N)NC(=O)[C@H](Cc1c[nH]c2ccccc12)NC(=O)[C@H](CCCNC(=N)N)NC(=O)[C@H](CO)NC(=O)[C@@H](N)CCCNC(=N)N)C(C)C [Peptide 175, H2N-RSRWRDVARNFMR-Ethylamidodecanyl] (H-RSRWRDVARNFMR-{Ethylenediamine-Decanoyl}; C-terminus assumed)",4,4,2,4,1,32,8
